Measured values reported in US11447566B2, “Anti-tissue factor antibodies, antibody-drug conjugates, and related methods” (Iconic Therapeutics, Inc., priority 2018, dated 2022).
Square brackets hold non-standard residues; d marks the D form. Peptide text beside a SMILES is read from it. * marks the point of attachment. Dolaproine = CO[C@@H]([C@@H]1CCCN1)[C@@H](C)C(=O)O; Dil = CC[C@H](C)[C@H](NC)[C@@H](CC(=O)O)OC; X1 = C[C@@H](N*)[C@@H](O)c1ccccc1; NMeV = CN[C@H](C(=O)O)C(C)C

Legend:
[1] = system: gastric adenocarcinoma PDX; test: Gastric adenocarcinoma patient-derived xenograft model; type: in vivo, athymic nude mice; details: end of the study (day 46)
Protocol: TF-positive PDX models were performed in athymic nude mice (Envigo, Indianapolis, Ind.) to evaluate the efficacy of the ADCs in vivo. The animals' care was in accordance with institutional guidelines. Study animals were implanted unilaterally on the left flank with tumor fragments.
Animals were removed from study and euthanized once tumor size reached 1200 mm^3 or skin ulceration was evident. In addition, the MTV curve for the treatment group in question was no longer shown once an animal was removed from study due to size. TGI and statistical analyses were conducted in the same manner as for the CDX studies.

HCT-116 cells = test: G2/M arrest (phospho-Histone H3), HCT-116 cells; type: cell-based, human; details: 24 h treatment
Protocol: (§1) To further understand the resistance of endothelial cells to anti-TF ADCs, cell cycle progression was evaluated 24 h after addition of the cytokines and TF-specific ADCs. Arrest at the G2/M phase of the cell cycle was analyzed as previously described in Theunissen et al, Methods Enzymol, 2006, 409:251-284. Briefly, low-passage HUVECs (Lifeline Cell Technologies, Frederick, Md., USA), propagated in VascuLife VEGF-Mv Endothelial media (Lifeline Cell Technologies), and HCT-116 cells were seeded on 12-well plates. The next day, media was removed and replaced with fresh media (no cytokines) or media containing 5 ng/mL IL1-beta, 25 ng/mL TNF-alpha and 50 ng/mL VEGF (with cytokines). A titration of MMAE-linked ADCs or free MMAE was added to the cells. After 24 h of treatment, cells were fixed in ice-cold 70% ethanol. Subsequently, the cells were washed with flow cytometry buffer (PBS, 1% FBS, 0.1% Triton) and stained for 1 h with a 1:100 dilution of phospho-Histone H3 (Ser10) (D2C8 PE Conjugate, Cell Signaling Technology). After 2 washes, the cells were treated for 20 min with 100 μg/mL PureLink RNAse A (ThermoFisher Scientific), followed by the addition of the viability dye TO-PRO-3 Iodide (ThermoFisher Scientific). 40,000 events were collected on a Novocyte flow cytometer. In the Flowjo data analysis software cell doublets and aneuploid cells were excluded. […]

HUVECs = test: G2/M arrest (phospho-Histone H3), HUVECs; type: cell-based, human; details: 24 h treatment, with or without inflammatory cytokines
Protocol: as §1

[2] = system: human thrombin generation (relipidated TF, normal pooled plasma); test: Thrombin generation assay (TGA); type: biochemical; details: 100 nM antibody, Example 18
Protocol: (§2) The TGA assay was performed using the calibrated-automated-thrombogram (CAT) instrument manufactured and distributed by STAGO. The test method design was equivalent to a standard CAT assay measurement, except that the plasma source was NPP in citrate/CTI. […] Relipidated TF was added to a 96-well assay plate, followed by addition of the antibody/NPP mixture. After a 10-min incubation or directly after combining the relipidated TF with antibody/NPP, thrombin generation was initiated by the addition of calcium and the thrombin substrate. The STAGO software was used to report the following parameters: Peak IIa (highest thrombin concentration generated [nM]); Lag Time (time to IIa generation [min]); ETP (endogenous thrombin potential, area under the curve [nM×min]); and ttPeak (time to Peak IIa [min]).
as §2, with “was normal pooled plasma (NPP)” for “was NPP”, “in citrate supplemented with corn trypsin inhibitor (citrate/CTI).” for “in citrate/CTI.”
TGA assay was performed using the calibrated-automated-thrombogram (CAT) instrument manufactured and distributed by STAGO (Diagnostica Stago SAS, Asnieres sur Seine, France). […] The anti-TF antibodies were titrated at 0, 10, 50 and 100 nM and mixed with NPP in citrate/CTI. Relipidated TF was added to a 96-well assay plate, followed by addition of the antibody/NPP mixture. After a 10-min incubation or directly after combining the relipidated TF with antibody/NPP, thrombin generation was initiated by the addition of calcium and the thrombin substrate. The STAGO software was used to report the following parameters: Peak IIa (highest thrombin concentration generated on the thrombin generation curve [nM]); Lag Time (time from assay start to the moment 10 nM of thrombin is formed [min]); ETP (endogenous thrombin potential, area under the curve [nM×min]); and ttPeak (time from assay start to Peak IIa [min]). […] As used herein, the term “thrombin generation assay” (TGA) refers to the TGA used in this example.

Compound: TF-011 ADC
- complete responders [1]: 1 animals
- tumor-free survivors [1]: 5 animals

Compound: CC[C@H](C)[C@@H]([C@@H](CC(=O)N1CCC[C@H]1[C@H](OC)[C@@H](C)C(=O)N[C@H](C)[C@@H](O)c1ccccc1)OC)N(C)C(=O)[C@@H](NC(=O)[C@@H](NC)C(C)C)C(C)C [MMAE, monomethyl auristatin E] (H-[NMeV]V[Dil][Dolaproine]-X1)
- G2/M arrest, pH3-positive HCT-116 cells (HCT-116 cells): increase the phosphorylation of histone H3 to a similar extent
- G2/M arrest, pH3-positive HUVECs (HUVECs): increase the phosphorylation of histone H3 to a similar extent

Compound: 10H10: previously described TF-specific antibody (Versteeg et al., 2008; Teplyakov et al., 2017) [reference compound]
- reduction of the peak IIa concentration ([2]; 10 min antibody pre-incubation): 48%
- reduction of the peak IIa concentration ([2]; without antibody pre-incubation): 34%
